Earlier results in US20190275102A1, “STERILE INJECTABLE COMPOSITION COMPRISING CARFILZOMIB” (CADILA HEALTHCARE LIMITED, priority 2018, published 2019).

Row | Compound | solubility in acidic conditions (acidic conditions) | solubility in water (water) | single dose showing renal tolerance (kidney; animal trials, single-dose studies, i.v.) | dose with evidence of renal cellular toxicity (kidney; in vivo) [mg/kg/day] | renal function (kidney; in vivo)
1 | CC(C)C[C@H](NC(=O)[C@H](CCc1ccccc1)NC(=O)CN1CCOCC1)C(=O)N[C@@H](Cc1ccccc1)C(=O)N[C@@H](CC(C)C)C(=O)[C@@]1(C)CO1 [Carfilzomib, (2S)—N—((S)-1-((S)-4-methyl-1-((R)-2-methytoxiran2-yl)-1-oxopentan-2-ylcarbamoyl)-2-phenylethyl)-2-((S)-2-(2-morpholinoacetamido)-4-phenylbutanamido)-4-methylpentanamide] | very slightly soluble | practically insoluble |  |  | 
2 | sulfobutylether beta-cyclodextrin |  |  | up to 2000 mg/kg | ≥ 160 | not impaired
